Read-outs that look alike come from different tables or passages of the source.
Assays:
Caco-2 cells = experiment: Cytotoxicity study by CCK-8 method; type: cell-based, Human; conditions: 24 h
Procedure: Standard stock solutions (1000 μM) of each theaflavin were prepared in 0.1% dimethyl sulfoxide (DMSO) in deionized water, and diluted with fresh DMEM to 100, 200, 300, 400, and 500 µmol/L respectively. Each inhibitor was prepared as instructions. The cytotoxicity of theaflavins and four inhibitors of multidrug resistant associated proteins to Caco-2 cells was examined by CCK-8 method (Song et al., [2014]). Briefly, Caco-2 cells were inoculated onto 96-well microtiter plates at a density of 1 × 10^4 cells per well. After incubation at 37 °C for 24 h, cells were incubated for another 24 h with different concentrations of theaflavins, followed by adding 10 μL CCK-8 solution and 1 h incubation at 37 °C. The absorbance (OD) value was determined at 450 nm using a microplate reader (ELX-800, Bio-Tek Instruments Inc., Winooski, USA). Four inhibitors were used in this study: Vep, inhibitor of P-gp; CsA, inhibitor and substrate of P-gp; MK-571, inhibitor of MRP1, MRP2 and MRP3; FTC, inhibitor of BCRP (Silbermann et al., [1989]; König et al., [1999]; Renes et al., [1999]; Ali et al., [2017]). The cytotoxicity of Vep, CsA, MK-571 or FTC was also determined by CCK-8 assay. […] To determine the effects of inhibitors on the cytotoxicity of theaflavins, cells were incubated with both different theaflavin monomers (100, 200, 300, 400, and 500 μM) and different inhibitors. IC50, the half inhibitory concentration, was calculated from the cell viability. The cell viability was calculated by the following equation: (1) Cell viability (%)=(ODsample− ODblank)/(ODcontrol− ODblank)×100% where ODsample is the absorbance value of cell + sample + complete medium; ODblank, the absorbance value of complete medium; ODcontrol, the absorbance value of cell + complete medium.

[1] = Transepithelial transport of theaflavins across Caco-2 cell monolayers, with or without efflux transporter inhibitors; type: in vitro ADME, Human; conditions: human; for recovery at 2 h, 200 μM: Caco-2, Caco-2 monolayers, after 2 h incubation; for efflux ratio at 2 h, 200 μM / Papp A→B at 2 h, 200 μM / Papp B→A at 2 h, 200 μM: 2 h incubation
Procedure: (§1) For transport studies, Caco-2 cells were seeded at a density of 3 × 10^5 cells per well in Transwell® inserts (polycarbonate membrane, 24 mm i.d., 0.4 μm pore size, Corning Costar Corp., NY, USA) in 6-well plates (Zhang et al., [2004]). […] The inserts were washed twice with HBSS buffer and equilibrated at 37 °C for 30 min. Standard stock solutions of each theaflavin were diluted to 200 μM with HBSS. For absorptive transport, theaflavins in 1.5 mL HBSS was added into the AP side and 2.6 mL HBSS was added into the BL side of all inserts. For secretory transport, 1.5 mL HBSS and 2.6 mL theaflavins in HBSS were added into AP side and BL side, respectively. Samples were collected from the receiving chamber after 0.5, 1, 2, 3, or 4 h incubation and then were lyophilized at −110 °C in a CoolSafe freeze dryer (LaboGene ApS, Bjarkesvej, Denmark) for HPLC analysis. The recovery rate of theaflavins in the transport was calculated from the above Equation (2).
(§2) Prior to transport inhibition experiment, cells were preincubated for 30 min with 100 μM Vep, 100 μM CsA, 100 μM MK-571, or 10 μM FTC in both sides (Vaidyanathan & Walle, [2001]; Wang et al., [2008]). Then, the absorptive and secretory experiments were performed in the presence of inhibitors as described above. Samples were collected from the receiving chamber after 2 h incubation and then were lyophilized at −110 °C for HPLC analysis.
(§3) The apparent permeability coefficient (Papp, cm/s) was calculated as follows: (3) Papp= dQ/dt×V/(A×C0) where dQ/dt is the variation in concentration on the receiving side over time (μM/s); V, the volume of the solution collected from the receiving chamber (cm^3); A, the area of the membrane (4.67 cm^2); C0, the initial concentration of theaflavins in the donor chamber (μM).
(§4) The efflux ratio was calculated as follows: (4) Efflux ratio= Papp(BL−AP)/Papp(AP−BL) where Papp, apparent permeability coefficient; AP-BL, apical to basolateral transport; BL-AP, basolateral to apical transport.

Caco-2 cell monolayers = experiment: as above; type: in vitro ADME, Human; conditions: absorptive transport, with verapamil vs control, 2 h
Procedure: as §1, §2, §3, §4

MRP1 = experiment: Western blot, protein level of MRP1; type: cell-based, Human; conditions: Caco-2 cells, 200 μM, 2 h, normalized to β-actin, vs control
Procedure: (§5) Cell lysates were prepared with RIPA lysis buffer. […] Cell protein (50 μg) was loaded onto SDS polyacrylamide gel (5% stacking gel; 8% separating gel) and separated by electrophoresis for 1.5 h at 20 mA. Next, the separated proteins were transferred onto the PVDF membrane in ice bath for 1.5 h at 120 mA, followed by blocking the membrane with 5% nonfat milk in Tris-buffered saline containing 0.1% Tween-20 (TBST) for 1 h at room temperature. After blocking, the blots were incubated overnight at 4 °C with the primary antibody of P-gp, MRP1, MRP2, MRP3, BCRP (1:200) or β-actin (1:40,000), followed by washing with TBST and incubation for 1 h at room temperature with HRP-conjugated goat anti-rabbit (1:3,000). Immunoreactive proteins were visualized by the ECL detection system, band intensity was quantified by Image Lab (Bio-Rad, CA, USA), and the protein contents were normalized to β-actin.

BCRP = experiment: Western blot, protein level of BCRP; type: cell-based, Human; conditions: Caco-2 cells, 200 μM, 2 h, normalized to β-actin, vs control
Procedure: as §5

Caco-2 monolayers = experiment: HPLC-MS/MS identification of metabolites in the absorptive transport of Caco-2 monolayers; type: in vitro ADME, Human; conditions: 200 µM, 2 h
Procedure: TF3G, TF3’G and TFDG were dissolved in DMSO (≤0.5%), and then, diluted with HBSS. Caco-2 cells were incubated with 200 µM TF3G, TF3’G and TFDG at 37 °C for 2 h. Samples collected from both AP side and BL side were measured by HPLC with MS detection, and the metabolites were determined in terms of the standard TF, TF3G, TF3’G, TFDG, and gallic acid (Table S2).

[2] = Stability (recovery rate) of theaflavins in HBSS and DMEM in the absence of cells; conditions: 2 h
Procedure: Standard stock solutions of each theaflavin were diluted with HBSS and DMEM respectively, obtaining final test solutions of 200 μM. The recovery rate of theaflavins in HBSS and in DMEM, in the absence of cells, was analyzed by HPLC after incubation at 37 °C for 0.5, 1, 2, 3, 4, 8, 12, and 24 hours, respectively. The recovery rate was used to measure the stability and calculated as follows: (2) Recovery rate=Ct/C0× 100% where Ct is the final concentration at different incubation time (μM); C0, the initial concentration (μM).
Theaflavins were characterized by high performance liquid chromatography (HPLC, Agilent 1100VL, Agilent Technologies Inc., CA, USA). Briefly, samples were extracted with 70% methanol, centrifuged at 685 × g for 10 min, and filtered through a 0.45 μm membrane (Nylon 66). The separation was performed by an ODS reversed-phase column (4.6 mm i.d.×250 mm, SB-C18, Agilent Technologies Inc., CA, USA) at a flow rate of 0.7 mL/min. Chromatographic conditions were slightly modified according to China National Standard (GB/T 30483-2013, GAQSIQ, P. R. China, 2013). Samples were eluted with a gradient of solvent A (100 mL water with 9 mL acetonitrile and 2 mL acetic acid) and B (100 mL acetonitrile with 17.8 mL water and 2 mL acetic acid) as follows: 0–5 min, 95% A; 5–10 min, 90% A; 10–20 min, 70% A; 20–25 min, 65% A; 25–30 min, 70% A; 30–35 min, 100% A. Theaflavins were detected using an ultraviolet detector at a wavelength of 278 nm.

O=C(O[C@@H]1Cc2c(O)cc(O)cc2O[C@@H]1c1cc(O)c(O)c2c(=O)c(O)cc([C@H]3Oc4cc(O)cc(O)c4C[C@H]3O)cc12)c1cc(O)c(O)c(O)c1 [TF3’G, theaflavin-3’-gallate]
IC50 (Caco-2 cells; + CsA): 575 ± 84.3 µM | IC50 (Caco-2 cells; + FTC): 432 ± 30.7 µM | IC50 (Caco-2 cells; + MK-571): 424 ± 35 µM | IC50 (Caco-2 cells; + VEP): 467 ± 53.3 µM | IC50 (Caco-2 cells; Homo sapiens, Ctrl (no inhibitor)): 521 ± 31.9 µM | recovery at 2 h, 200 μM ([1]; apical to basolateral, read-out: recovery of theaflavins in absorptive transport): 31.8% | recovery at 2 h, 200 μM ([1]; basolateral to apical, read-out: recovery of theaflavins in secretory transport): 31.6% | efflux ratio at 2 h, 200 μM ([1]; Caco-2, Papp(BL−AP)/Papp(AP−BL), Ctrl (no inhibitor)): 1.62 ± 0.15 | Papp A→B at 2 h, 200 μM ([1]; Caco-2, absorptive transport, 200 μM theaflavin in HBSS, Ctrl (no inhibitor)): 0.044 ± 0.003 ×10⁻⁶ cm/s | Papp B→A at 2 h, 200 μM ([1]; Caco-2, secretory transport, 200 μM theaflavin in HBSS, Ctrl (no inhibitor)): 0.072 ± 0.003 ×10⁻⁶ cm/s | efflux ratio at 2 h, 200 μM ([1]; Caco-2, with 10 μM FTC (BCRP inhibitor), + 10 μM FTC (BCRP inhibitor)): 1.26 ± 0.11 | Papp A→B at 2 h, 200 μM ([1]; Caco-2, with 10 μM FTC (BCRP inhibitor), absorptive transport, + 10 μM FTC (BCRP inhibitor)): 0.054 ± 0.003 ×10⁻⁶ cm/s | Papp B→A at 2 h, 200 μM ([1]; Caco-2, with 10 μM FTC (BCRP inhibitor), secretory transport, + 10 μM FTC (BCRP inhibitor)): 0.067 ± 0.002 ×10⁻⁶ cm/s | efflux ratio at 2 h, 200 μM ([1]; Caco-2, with 100 μM CsA (P-gp inhibitor and substrate), + 100 μM CsA (P-gp inhibitor and substrate)): 1.55 ± 0.14 | Papp A→B at 2 h, 200 μM ([1]; Caco-2, with 100 μM CsA (P-gp inhibitor and substrate), absorptive transport, + 100 μM CsA (P-gp inhibitor and substrate)): 0.054 ± 0.003 ×10⁻⁶ cm/s | Papp B→A at 2 h, 200 μM ([1]; Caco-2, with 100 μM CsA (P-gp inhibitor and substrate), secretory transport, + 100 μM CsA (P-gp inhibitor and substrate)): 0.084 ± 0.003 ×10⁻⁶ cm/s | efflux ratio at 2 h, 200 μM ([1]; Caco-2, with 100 μM Vep (P-gp inhibitor), + 100 μM Vep (P-gp inhibitor)): 1.08 ± 0.1 | Papp A→B at 2 h, 200 μM ([1]; Caco-2, with 100 μM Vep (P-gp inhibitor), absorptive transport, + 100 μM Vep (P-gp inhibitor)): 0.055 ± 0.003 ×10⁻⁶ cm/s | Papp B→A at 2 h, 200 μM ([1]; Caco-2, with 100 μM Vep (P-gp inhibitor), secretory transport, + 100 μM Vep (P-gp inhibitor)): 0.059 ± 0.002 ×10⁻⁶ cm/s | fold increase in the influx (Caco-2 cell monolayers): 1.24 fold | increase of protein level of MRP1 (MRP1): increased | increase of protein level of BCRP (BCRP): increased | conjugated metabolites (glucuronidated, sulfated and methylated) (Caco-2 monolayers; AP side or BL side of Caco-2 monolayers): not detected | metabolites identified (Caco-2 monolayers; absorptive transport, AP side and BL side): GA (peak M3, Figure 5(G,H)) and TF | degraded due to the structural instability [2]: 22.1%
